# Data taken from publication PMC5510229, “BCAT1 controls metabolic reprogramming in activated human macrophages and is associated with inflammatory diseases” (Nature Communications, 2017).
# Test: Uptake and metabolism of ERG240 in human macrophage lysates by GC/MS
# Type: in vitro ADME
# Description: NCOMMS-16-23550_Point by Point Responses Papathanassiu et al.
# Add additional explanation for “extracellular space” findings because this is unclear.
# Authors’ reply. ‘Extracellular space’ has now been replaced by ‘extracellular matrix genes’ in the revised manuscript (Figure 3 in the submitted manuscript which is now Figure 4 in the revised one). We have also added a Volcano plot showing the differentially expressed genes (Figure 4E in the revised manuscript).
# Authors fail to cite and discuss this paper found in quick google search “ Nemeth, B.; Doczi, J.; Csete, D.; Kacso, G.; Ravasz, D.; Adams, D.; Kiss, G.; Nagy, A. M.; Horvath, G.; Tretter, L.; Mocsai, A.; Csepanyi-Komi, R.; Iordanov, I.; Adam-Vizi, V.; Chinopoulos, C. (2015).
# “Abolition of mitochondrial substrate-level phosphorylation by itaconic acid produced by LPS-induced Irg1 expression in cells of murine macrophage lineage”. The FASEB Journal.
# Authors’ reply. This paper is now cited and discussed by adding this following paragraph to the discussion (highlighted text).
# Besides its antimicrobial effects, itaconate has been proposed as an inhibitor of substrate level phosphorylation (SLP) through its effect on succinate-CoA ligase in RAW-264.7 cells1.
# Statistical analysis (or indications in figures) is lacking in Fig 1C. Fig 4C.
# Authors’ reply. Statistical analyses are added for Fig 1C and 4C. Please note that Figure
# 4C is now Figure 5C in the revised manuscript. (See also highlighted text in figure legends).
# Dosing in vitro should be discussed further- 20mM in vitro is a high dose if IC50 is in nM […]
# Authors’ reply. ERG240 is a structural analogue of leucine, designed based on the X-ray crystal structure of BCAT1 and, as the reviewer correctly states, it can inhibit BCAT1 within 0.1-1nM range of IC50. The concentration of 20 mM used in the cellular assays is because […]
# possible competition with leucine, which is in mM concentration (0.381 mM) in the RPMI media used throughout the study. […]
# A cartoon of metabolites regulated would aid the reader. […]
# ERG240 can easily be detected […]
smiles,measurement,setting,value
CC(=O)C(C)CCC(=O)O (stereo not drawn) [ERG240],uptake of the compound by cells,1x10^6 cells treated with 3.28 mg ERG240 (20 mM),0.8 to 3 ng
same,estimated intracellular ERG240 concentration,human macrophages treated with 20 mM,70 to 260 nM
same,cellular metabolism of the drug,"lysates of human macrophages, GC/MS",does not undergo any cellular metabolic reaction
